Measured values reported in patent US20250145665A1, “MACROCYCLIC PEPTIDES USEFUL AS MODULATORS OF TNF ALPHA” (Bristol-Myers Squibb Company, priority 2023, published 2025).
Starred links: 1 amine or outer side, 2 acyl side, 3 side chain; linkers in the order of their positions; H or OH if unused. Positions of bridges follow the written chain, without caps; N, C: chain ends. Non-standard residues stand in square brackets, D forms with d. Residues, ends and D or L forms follow the SMILES beside them. *: point of attachment. Bip(4'-NH) = O=C([C@H](Cc1ccc(-c2ccc(N[*:3])cc2)cc1)N[*:1])[*:2]; Bip(4'-CONHMe) = CNC(=O)c1ccc(-c2ccc(C[C@H](N)C(=O)O)cc2)cc1; Indazole3carbonyl(1-CH2COOH) = O=C(O)Cn1nc(C(=O)*)c2ccccc21; X23 = N=C(N)Nc1ccc(CNC(=N)NCCC[C@@H](N[*:1])C(=O)[*:2])cc1; X1 = N=C(NCCC[C@@H](N[*:1])C(=O)[*:2])NCCc1ccc2ccccc2c1; X30 = N#Cc1ccc(CCNC(=N)NCCC[C@@H](N[*:1])C(=O)[*:2])cc1; X8 = N=C(NCCC[C@@H](N[*:1])C(=O)[*:2])NCCc1ccc(CN)cc1; X55 = N=C(NCCC[C@@H](N[*:1])C(=O)[*:2])NCCc1cccnc1; Ala(morpholin-4-yl) = N[C@@H](CN1CCOCC1)C(=O)O; Bip = N[C@@H](Cc1ccc(-c2ccccc2)cc1)C(=O)O; Sar = CNCC(=O)O

Target: TNFα (Homo sapiens, UniProt P01375)
Sequence (P01375 77-233 limits assumed): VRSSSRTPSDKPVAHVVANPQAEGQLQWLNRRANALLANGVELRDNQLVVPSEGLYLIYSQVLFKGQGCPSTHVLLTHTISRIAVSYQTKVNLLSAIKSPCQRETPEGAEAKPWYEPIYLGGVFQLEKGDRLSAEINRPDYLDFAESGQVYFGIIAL
Assay: TNF-Induced HEK-Blue Assay
Type: cell-based

SMILES | IC50
CNC(=O)c1ccc(-c2ccc(C[C@@H]3NC(=O)[C@H](CN4CCOCC4)NC(=O)CSC[C@@H](C(=O)NCC(N)=O)NC(=O)[C@H](CC(C)C)NC(=O)[C@H](CCCNC(=N)N)NC(=O)[C@H](C(C)C)NC(=O)[C@@H]4CCCN4C(=O)[C@H](C(C)C)NC(=O)[C@@H](CCCNC(=N)NCCc4ccc(C#N)cc4)NC(=O)[C@H](CC(=O)O)NC(=O)[C@@H]4CCCN4C(=O)CN(C)C(=O)[C@H](Cc4ccc(-c5ccc(NC(=O)c6nn(CC(=O)O)c7ccccc67)cc5)cc4)NC3=O)cc2)cc1 [Example 430] ({CH2CO}-[Ala(morpholin-4-yl)][Bip(4'-CONHMe)][Bip(4'-NH)](Indazole3carbonyl(1-CH2COOH))[Sar]PD[X30]VPVRLCG-NH2; thioether N-13) | < 50 nM
CNC(=O)c1ccc(-c2ccc(C[C@@H]3NC(=O)[C@H](CN4CCOCC4)NC(=O)CSC[C@@H](C(=O)NCC(N)=O)NC(=O)[C@H](CC(C)C)NC(=O)[C@H](CCCNC(=N)N)NC(=O)[C@H](C(C)C)NC(=O)[C@@H]4CCCN4C(=O)[C@H](C(C)C)NC(=O)[C@@H](CCCNC(=N)NCCc4ccc(CN)cc4)NC(=O)[C@H](CC(=O)O)NC(=O)[C@@H]4CCCN4C(=O)CN(C)C(=O)[C@H](Cc4ccc(-c5ccc(NC(=O)c6nn(CC(=O)O)c7ccccc67)cc5)cc4)NC3=O)cc2)cc1 [Example 431] ({CH2CO}-[Ala(morpholin-4-yl)][Bip(4'-CONHMe)][Bip(4'-NH)](Indazole3carbonyl(1-CH2COOH))[Sar]PD[X8]VPVRLCG-NH2; thioether N-13) | 50 to 200 nM
CC(C)C[C@@H]1NC(=O)[C@H](CCCNC(=N)N)NC(=O)[C@H](C(C)C)NC(=O)[C@@H]2CCCN2C(=O)[C@H](C(C)C)NC(=O)[C@@H](CCCNC(=N)NCc2ccc(NC(=N)N)cc2)NC(=O)[C@H](CC(=O)O)NC(=O)[C@@H]2CCCN2C(=O)CN(C)C(=O)[C@H](Cc2ccc(-c3ccc(NC(=O)c4nn(CC(=O)O)c5ccccc45)cc3)cc2)NC(=O)[C@H](Cc2ccc(-c3ccccc3)cc2)NC(=O)[C@H](CN2CCOCC2)NC(=O)CSC[C@@H](C(=O)NCC(N)=O)NC1=O [Example 432] ({CH2CO}-[Ala(morpholin-4-yl)][Bip][Bip(4'-NH)](Indazole3carbonyl(1-CH2COOH))[Sar]PD[X23]VPVRLCG-NH2; thioether N-13) | 50 to 200 nM
CC(C)C[C@@H]1NC(=O)[C@H](CCCNC(=N)N)NC(=O)[C@H](C(C)C)NC(=O)[C@@H]2CCCN2C(=O)[C@H](C(C)C)NC(=O)[C@@H](CCCNC(=N)NCCc2ccc3ccccc3c2)NC(=O)[C@H](CC(=O)O)NC(=O)[C@@H]2CCCN2C(=O)CN(C)C(=O)[C@H](Cc2ccc(-c3ccc(NC(=O)c4nn(CC(=O)O)c5ccccc45)cc3)cc2)NC(=O)[C@H](Cc2ccc(-c3ccccc3)cc2)NC(=O)[C@H](CN2CCOCC2)NC(=O)CSC[C@@H](C(=O)NCC(N)=O)NC1=O [Example 433] ({CH2CO}-[Ala(morpholin-4-yl)][Bip][Bip(4'-NH)](Indazole3carbonyl(1-CH2COOH))[Sar]PD[X1]VPVRLCG-NH2; thioether N-13) | 50 to 200 nM
CC(C)C[C@@H]1NC(=O)[C@H](CCCNC(=N)N)NC(=O)[C@H](C(C)C)NC(=O)[C@@H]2CCCN2C(=O)[C@H](C(C)C)NC(=O)[C@@H](CCCNC(=N)NCCc2cccnc2)NC(=O)[C@H](CC(=O)O)NC(=O)[C@@H]2CCCN2C(=O)CN(C)C(=O)[C@H](Cc2ccc(-c3ccc(NC(=O)c4nn(CC(=O)O)c5ccccc45)cc3)cc2)NC(=O)[C@H](Cc2ccc(-c3ccccc3)cc2)NC(=O)[C@H](CN2CCOCC2)NC(=O)CSC[C@@H](C(=O)NCC(N)=O)NC1=O [Example 434] ({CH2CO}-[Ala(morpholin-4-yl)][Bip][Bip(4'-NH)](Indazole3carbonyl(1-CH2COOH))[Sar]PD[X55]VPVRLCG-NH2; thioether N-13) | 50 to 200 nM
